Experiments:
Type in all cases: in vivo
[1] = tested on: barnyardgrass (Echinochloa crus-galli); test: Test G Pre-Emergence Protocol; conditions: Echinochloa crus-galli, pre-emergence, 312 h, evaluated after 13 days; for pest or weed control at 15.625 g/ha: 15.625 g ai/ha; for pest or weed control at 15.625 g/ha / pest or weed control at 250 g/ha: read-out: Barnyardgrass damage rating (100=total damage to plant; 0=no damage to plant); for pest or weed control at 62.5 g/ha: 62.5 g ai/ha, 100=total damage to plant, 0=no damage to plant, read-out: Barnyardgrass damage rating; for pest or weed control at 250 g/ha: 250 g ai/ha
Method in brief: (§1)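 Under a 24/16° C day/night regime with 14 h light and 65% humidity, sown pots were sprayed after one day with compound (15.625, 62.5 or 250 g/ha; 50:50 acetone/water, 0.5% Tween 20). Damage was assessed visually 13 days later, 0 to 100.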

corn (Zea mays) [2] = test: Test G Pre-Emergence Protocol; conditions: Zea mays, pre-emergence, 312 h, evaluated after 13 days; for plant injury at 15.625 g/ha: 15.625 g ai/ha; for plant injury at 15.625 g/ha / plant injury at 250 g/ha: read-out: Corn damage rating (100=total damage to plant; 0=no damage to plant); for plant injury at 62.5 g/ha: 62.5 g ai/ha, 100=total damage to plant, 0=no damage to plant, read-out: Corn damage rating; for plant injury at 250 g/ha: 250 g ai/ha
Method in brief: as §1

[3] = tested on: giant foxtail (Setaria faberi); test: Test G Pre-Emergence Protocol; conditions: Setaria faberi, pre-emergence, 312 h, evaluated after 13 days; for pest or weed control at 15.625 g/ha: 15.625 g ai/ha; for pest or weed control at 15.625 g/ha / pest or weed control at 250 g/ha: read-out: Foxtail, Giant damage rating (100=total damage to plant; 0=no damage to plant); for pest or weed control at 62.5 g/ha: 62.5 g ai/ha, 100=total damage to plant, 0=no damage to plant, read-out: Foxtail, Giant damage rating; for pest or weed control at 250 g/ha: 250 g ai/ha
Method in brief: as §1

[4] = tested on: ivy-leaved morning glory (Ipomoea hederacea); test: Test G Pre-Emergence Protocol; conditions: Ipomoea, pre-emergence, 312 h, evaluated after 13 days; for pest or weed control at 15.625 g/ha: 15.625 g ai/ha; for pest or weed control at 15.625 g/ha / pest or weed control at 250 g/ha: read-out: Morningglory, Ivy-leaved damage rating (100=total damage to plant; 0=no damage to plant); for pest or weed control at 62.5 g/ha: 62.5 g ai/ha, 100=total damage to plant, 0=no damage to plant, read-out: Morningglory, Ivy-leaved damage rating; for pest or weed control at 250 g/ha: 250 g ai/ha
Method in brief: as §1

[5] = tested on: redroot pigweed (Amaranthus retroflexus); test: Test G Pre-Emergence Protocol; conditions: Amaranthus retroflexus, pre-emergence, 312 h, evaluated after 13 days; for pest or weed control at 15.625 g/ha: 15.625 g ai/ha; for pest or weed control at 15.625 g/ha / pest or weed control at 250 g/ha: read-out: Pigweed, Redroot damage rating (100=total damage to plant; 0=no damage to plant); for pest or weed control at 62.5 g/ha: 62.5 g ai/ha, 100=total damage to plant, 0=no damage to plant, read-out: Pigweed, Redroot damage rating; for pest or weed control at 250 g/ha: 250 g ai/ha
Method in brief: as §1

[6] = tested on: velvetleaf (Abutilon theophrasti); test: Test G Pre-Emergence Protocol; conditions: Abutilon theophrasti, pre-emergence, 312 h, evaluated after 13 days; for pest or weed control at 15.625 g/ha: 15.625 g ai/ha; for pest or weed control at 15.625 g/ha / pest or weed control at 250 g/ha: read-out: Velvetleaf damage rating (100=total damage to plant; 0=no damage to plant); for pest or weed control at 62.5 g/ha: 62.5 g ai/ha, 100=total damage to plant, 0=no damage to plant, read-out: Velvetleaf damage rating; for pest or weed control at 250 g/ha: 250 g ai/ha
Method in brief: as §1

[7] = tested on: barnyardgrass (Echinochloa crus-galli); test: Test G Post-Emergence Protocol; conditions: Echinochloa crus-galli, post-emergence, 312 h, read-out: Barnyardgrass damage rating; for pest or weed control at 15.625 g/ha: 15.625 g ai/ha, evaluated after 13 days (100=total damage to plant; 0=no damage to plant); for pest or weed control at 62.5 g/ha: 62.5 g ai/ha; for pest or weed control at 62.5 g/ha / pest or weed control at 250 g/ha: evaluated after 13 days, 100=total damage to plant, 0=no damage to plant; for pest or weed control at 250 g/ha: 250 g ai/ha
Method in brief: (§2)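 Scores run 0 (no damage) to 100 (total damage) and were taken 13 days after spraying. Plants had been raised in pots for 8 days under glasshouse control (24/16 °C, 14 h photoperiod, 65% humidity) and then treated at 15.625, 62.5 or 250 g/ha.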

corn (Zea mays) [8] = test: Test G Post-Emergence Protocol; conditions: Zea mays, post-emergence, 312 h, read-out: Corn damage rating; for plant injury at 15.625 g/ha: 15.625 g ai/ha, evaluated after 13 days (100=total damage to plant; 0=no damage to plant); for plant injury at 62.5 g/ha: 62.5 g ai/ha; for plant injury at 62.5 g/ha / plant injury at 250 g/ha: evaluated after 13 days, 100=total damage to plant, 0=no damage to plant; for plant injury at 250 g/ha: 250 g ai/ha
Method in brief: as §2

[9] = tested on: giant foxtail (Setaria faberi); test: Test G Post-Emergence Protocol; conditions: Setaria faberi, post-emergence, 312 h, read-out: Foxtail, Giant damage rating; for pest or weed control at 15.625 g/ha: 15.625 g ai/ha, evaluated after 13 days (100=total damage to plant; 0=no damage to plant); for pest or weed control at 62.5 g/ha: 62.5 g ai/ha; for pest or weed control at 62.5 g/ha / pest or weed control at 250 g/ha: evaluated after 13 days, 100=total damage to plant, 0=no damage to plant; for pest or weed control at 250 g/ha: 250 g ai/ha
Method in brief: as §2

[10] = tested on: ivy-leaved morning glory (Ipomoea hederacea); test: Test G Post-Emergence Protocol; conditions: Ipomoea, post-emergence, 312 h, read-out: Morningglory, Ivy-leaved damage rating; for pest or weed control at 15.625 g/ha: 15.625 g ai/ha, evaluated after 13 days (100=total damage to plant; 0=no damage to plant); for pest or weed control at 62.5 g/ha: 62.5 g ai/ha; for pest or weed control at 62.5 g/ha / pest or weed control at 250 g/ha: evaluated after 13 days, 100=total damage to plant, 0=no damage to plant; for pest or weed control at 250 g/ha: 250 g ai/ha
Method in brief: as §2

[11] = tested on: redroot pigweed (Amaranthus retroflexus); test: Test G Post-Emergence Protocol; conditions: Amaranthus retroflexus, post-emergence, 312 h, read-out: Pigweed, Redroot damage rating; for pest or weed control at 15.625 g/ha: 15.625 g ai/ha, evaluated after 13 days (100=total damage to plant; 0=no damage to plant); for pest or weed control at 62.5 g/ha: 62.5 g ai/ha; for pest or weed control at 62.5 g/ha / pest or weed control at 250 g/ha: evaluated after 13 days, 100=total damage to plant, 0=no damage to plant; for pest or weed control at 250 g/ha: 250 g ai/ha
Method in brief: as §2

[12] = tested on: velvetleaf (Abutilon theophrasti); test: Test G Post-Emergence Protocol; conditions: Abutilon theophrasti, post-emergence, 312 h, read-out: Velvetleaf damage rating; for pest or weed control at 15.625 g/ha: 15.625 g ai/ha, evaluated after 13 days (100=total damage to plant; 0=no damage to plant); for pest or weed control at 62.5 g/ha: 62.5 g ai/ha; for pest or weed control at 62.5 g/ha / pest or weed control at 250 g/ha: evaluated after 13 days, 100=total damage to plant, 0=no damage to plant; for pest or weed control at 250 g/ha: 250 g ai/ha
Method in brief: as §2

CN1C[C@H](c2cccc(C(F)(F)F)c2)[C@@H](C(=O)Nc2ccc3cccnc3n2)C1=O (racemic) [Compound 1676]
0%: pest or weed control at 15.625 g/ha [1] | pest or weed control at 62.5 g/ha [1] | pest or weed control at 250 g/ha [1] | plant injury at 15.625 g/ha (corn (Zea mays) [2]) | plant injury at 62.5 g/ha (corn (Zea mays) [2]) | plant injury at 250 g/ha (corn (Zea mays) [2]) | pest or weed control at 15.625 g/ha [3] | pest or weed control at 62.5 g/ha [3] | pest or weed control at 250 g/ha [3] | pest or weed control at 15.625 g/ha [4] | pest or weed control at 62.5 g/ha [4] | pest or weed control at 250 g/ha [4] | pest or weed control at 15.625 g/ha [5] | pest or weed control at 62.5 g/ha [5] | pest or weed control at 250 g/ha [5] | pest or weed control at 15.625 g/ha [6] | pest or weed control at 62.5 g/ha [6] | pest or weed control at 250 g/ha [6] | pest or weed control at 15.625 g/ha [7] | pest or weed control at 62.5 g/ha [7] | pest or weed control at 250 g/ha [7] | plant injury at 15.625 g/ha (corn (Zea mays) [8]) | plant injury at 62.5 g/ha (corn (Zea mays) [8]) | plant injury at 250 g/ha (corn (Zea mays) [8]) | pest or weed control at 15.625 g/ha [9] | pest or weed control at 62.5 g/ha [9] | pest or weed control at 250 g/ha [9] | pest or weed control at 15.625 g/ha [10] | pest or weed control at 62.5 g/ha [10] | pest or weed control at 250 g/ha [10] | pest or weed control at 15.625 g/ha [11] | pest or weed control at 62.5 g/ha [11] | pest or weed control at 250 g/ha [11] | pest or weed control at 15.625 g/ha [12] | pest or weed control at 62.5 g/ha [12] | pest or weed control at 250 g/ha [12]

CN1C[C@H](c2ccc(C(F)(F)F)cc2)[C@@H](C(=O)Nc2cccc(F)c2S(C)(=O)=O)C1=O (racemic) [Compound 1680]
30%: pest or weed control at 15.625 g/ha [9]
70%: pest or weed control at 250 g/ha [5]
0%: pest or weed control at 15.625 g/ha [1] | plant injury at 15.625 g/ha (corn (Zea mays) [2]) | plant injury at 62.5 g/ha (corn (Zea mays) [2]) | plant injury at 250 g/ha (corn (Zea mays) [2]) | pest or weed control at 15.625 g/ha [4] | pest or weed control at 62.5 g/ha [4] | pest or weed control at 250 g/ha [4] | plant injury at 15.625 g/ha (corn (Zea mays) [8]) | plant injury at 62.5 g/ha (corn (Zea mays) [8]) | plant injury at 250 g/ha (corn (Zea mays) [8]) | pest or weed control at 15.625 g/ha [12] | pest or weed control at 250 g/ha [12]
50%: pest or weed control at 250 g/ha [7] | pest or weed control at 15.625 g/ha [11]
60%: pest or weed control at 250 g/ha [1] | pest or weed control at 62.5 g/ha [3] | pest or weed control at 62.5 g/ha [11] | pest or weed control at 250 g/ha [11]
10%: pest or weed control at 15.625 g/ha [6] | pest or weed control at 62.5 g/ha [6] | pest or weed control at 15.625 g/ha [10] | pest or weed control at 62.5 g/ha [10] | pest or weed control at 62.5 g/ha [12]
90%: pest or weed control at 250 g/ha [3] | pest or weed control at 250 g/ha [6]
80%: pest or weed control at 62.5 g/ha [9] | pest or weed control at 250 g/ha [9]
20%: pest or weed control at 62.5 g/ha [1] | pest or weed control at 15.625 g/ha [3] | pest or weed control at 15.625 g/ha [5] | pest or weed control at 62.5 g/ha [5] | pest or weed control at 15.625 g/ha [7] | pest or weed control at 62.5 g/ha [7] | pest or weed control at 250 g/ha [10]

COC(=O)c1cc([C@H]2CN(C)C(=O)[C@@H]2C(=O)Nc2ccccc2F)ccc1F (racemic) [Compound 1682]
0%: pest or weed control at 15.625 g/ha [1] | pest or weed control at 62.5 g/ha [1] | pest or weed control at 250 g/ha [1] | plant injury at 15.625 g/ha (corn (Zea mays) [2]) | plant injury at 62.5 g/ha (corn (Zea mays) [2]) | plant injury at 250 g/ha (corn (Zea mays) [2]) | pest or weed control at 15.625 g/ha [3] | pest or weed control at 62.5 g/ha [3] | pest or weed control at 250 g/ha [3] | pest or weed control at 15.625 g/ha [4] | pest or weed control at 62.5 g/ha [4] | pest or weed control at 250 g/ha [4] | pest or weed control at 15.625 g/ha [5] | pest or weed control at 62.5 g/ha [5] | pest or weed control at 250 g/ha [5] | pest or weed control at 15.625 g/ha [6] | pest or weed control at 62.5 g/ha [6] | pest or weed control at 250 g/ha [6] | pest or weed control at 15.625 g/ha [7] | pest or weed control at 62.5 g/ha [7] | pest or weed control at 250 g/ha [7] | plant injury at 15.625 g/ha (corn (Zea mays) [8]) | plant injury at 62.5 g/ha (corn (Zea mays) [8]) | plant injury at 250 g/ha (corn (Zea mays) [8]) | pest or weed control at 15.625 g/ha [9] | pest or weed control at 62.5 g/ha [9] | pest or weed control at 15.625 g/ha [10] | pest or weed control at 62.5 g/ha [10] | pest or weed control at 250 g/ha [10] | pest or weed control at 15.625 g/ha [11] | pest or weed control at 62.5 g/ha [11] | pest or weed control at 250 g/ha [11] | pest or weed control at 15.625 g/ha [12] | pest or weed control at 62.5 g/ha [12] | pest or weed control at 250 g/ha [12]

From US12077503B2, “Substituted cyclic amides and their use as herbicides” (FMC CORPORATION, priority 2015, dated 2024)
